Measured values: patent US6696081B2, “Carbohydrate based lipid compositions and supramolecular structures comprising same” (Duke University, priority 2000, dated 2004)
Where “and” joins values, the source holds several entries; their conditions need not be identical. Equal values may be shown once. Read-outs that look alike come from different tables or passages of the source.

How the values were obtained:
[1] = Modulated differential scanning calorimetry (MDSC) of hydrated lipid bilayers; assay type: physicochemical; details: for enthalpy of transition / phase-transition temperature (Tm) of the bilayer: lipid hydrated in water, MDSC; for increase of Tm over the glycerol analog: DLRPC vs DLPC, DMRPC vs DMPC
Description: The phase-transition temperatures (Tm) of the bilayers formed by DLRPC, DMRPC and DARPC were determined by modulated differential scanning calorimetry (MDSC). […] For DARPC, the similarity in Tm was not entirely unexpected since tail—tail interactions contribute more to the Tm as the tail length increases. […] At the phase-transition temperature, the bilayer transformed from the gel-liquid crystalline phase in glycerol based phospholipids such as DLPC and DMPC. This endothermic process was observed as two discreet events. A small pre-transition peak, corresponding to the conversion from a lamellar gel (Lβ) phase to rippled gel (Pβ) phase, occurred below a much larger sharp main transition peak corresponding to conversion of the Pβ phase to the liquid crystalline Lα phase. The temperature at which the pre-transition existed as well as the enthalpy of the transition both changed as a function of tail length in a linear pattern. This presence of two well-defined phase transitions was not observed for the carbohydrate-based lipids.
Thermal Analysis of DLRPC 1-2 mgs of lipid were hermetically sealed with […] water in an aluminum pan. The modulation was set to ±1.00° C. every 40 seconds and the pan was equilibrated at −15° C. The temperature was increased at 0.5° C./min to 70° C. where the temperature was held for 2 minutes. The temperature was then reduced to −10° C. and held at this temperature for 2 minutes. This heating-cooling cycle was repeated two more times before the sample was held isothermal at −10° C. for 20 minutes. Integrating under the heat flow peak curve of the main peak provides the enthalpy of the transition. TA Instruments Universal Analysis computer program (available from TA Instruments of New Castle, Del., United States of America) was used to analyze the data. DLRPC has a Tm of 15.75° C. and an enthalpy of 3.3 kcal/mol.
The same modulated differential scanning calorimetry method used on DLRPC was employed to obtain thermotropic data on DMRPC.
The same modulated differential scanning calorimetry method used on DLRPC was employed to obtain thermotropic data on DARPC.

[2] = literature value, Marsh, CRC Handbook of Lipid Bilayers; cited from earlier work
[3] = glycerol analog, Van Dijck et al.; cited from earlier work
[4] = 40 mol % cholesterol; McMullen et al.; cited from earlier work
[5] = Carboxyfluorescein leakage assay of carbohydrosomes; assay type: physicochemical
From the text: The following procedure is adapted from Weinstein et al. (Weinstein, et al., Self-Quenching of Carboxyfluorescein Fluorescence: Uses in Studying Liposome Stability and Liposome-Cell Interaction; Weinstein, J. N.; et al., Ed.; CRC Press, Inc.: Boca Raton, Fla., United States of Amenica 1984; Vol. 3, pp 183-204.) and was successfully used in DMPC control experiments. Immediately before use, the carbohydrate-based lipid DMRPC, was passed through a C-18 SEP PAK™ column using a solvent system of 10% MeOH/CH3CN. Both the cholesterol and DMRPC were dissolved in chloroform and mixed. The mixtures were dried by rotoevaporation in a 100 mL round bottom flask before being thoroughly dried by high vacuum. […] The size of the liposomes was determined using dynamic light scattering. […] The filtered liposomes were diluted into osmotically equivalent 20 mM PBS buffer at pH 7.4 and the fluorescence intensity was measured over time. […]
As discussed herein above, one of the most wide-spread uses of liposomes is as drug delivery vehicles in warm-blooded vertebrates, including humans. […] In this Example, release of the self-quenching dye 5(6)-carboxyfluorescein (encapsulated in 5 mg/mL) was monitored over time by preparing carboxyfluorescein-containing carbohydrosomes using the high-pressure extrusion method. […]

[6] = tested on: PLA2 (naja naja venom); assay: pH-stat phospholipase assay; assay type: biochemical; details: for initial average rate of hydrolysis by PLA2: lipid as substrate, Triton X-100 40 mM, CaCl2 10 mM, 40° C., pH 8.0, PLA2 0.1 units/mL
Description: The pH-stat phospholipase assays were performed on a Metrohm 718 STAT Titrino pH-stat following a procedure described by Yuan et al. (Yuan, W.; Berman, R. J.; Gelb, M. H. J. Am. Chem. Soc. 1987, 109, 8071-8081; Deems, R. A.; Dennis, E. A. Methods Enzym 1981, 71, 703-710.) Before the assays were performed, the pH-stat was calibrated at pH 7 and pH 4. The NaOH (0.01 N) titrant was standardized by titration to pH 8.65 with a weighed amount of potassium hydrogen-phthalate in 40 mL of Dl water. The lipid was transferred to a 5 mL round bottom flask in methylene chloride/methanol (98/2) and the solvent was removed by rotoevaporation. High vacuum then removed trace amounts of remaining solvent. The lipid film was rehydrated with 2 mL of an aqueous solution containing TRITON X-100™ detergent (Sigma Chemical Company, St. Louis, Mo.) (40 mM) and CaCl2 (10 mM) and then sonicated briefly to solubilize the lipids.
Next, the solution was immersed in a temperature-controlled bath at 40° C. and stirred with a magnetic stir bar. A stream of argon was passed over the reaction mixture to prevent CO2 absorption. A microelectrode (Metrohm 6.0224.100 pH 1-11/0-60° C. Idrolyte) was inserted through the top of the reaction vessel along with the dosing tube from the pH-stat. The reaction mixture was adjusted to a pH of 8.2 by addition of NaOH. Next, 0.2 units of PLA2 (naja naja venom, Sigma Chemical Company, St. Louis, Mo.) (0.1 units/mL) was added to the reaction and the reaction started. The pH was allowed to drop to 8.0 and held at this value by addition of NaOH. At pH 8, the fatty acids were almost completely ionized; therefore, the amount of base added as a function of time indicates cleavage of the ester bond.
In this Example, enzymatic activity was recorded using a pH-stat, which maintains a specific pH by adding base during the enzymatic reaction. During these assays, DMPC was hydrolyzed with an initial average rate of 6.19 E-08 (moles NaOH/minute) (std dev 6.72E-10).
Next, whether DMRPC inhibits PLA2 activity was investigated. Using DMPC (5 mM) as a substrate, DMRPC was added to the reaction mixture at varying concentrations. […] With a change in structure, different carbohydrate-based phospholipids could inhibit PLA2.

[7] = MDSC thermal analysis of DLRPA as a function of pH; assay type: physicochemical
From the text: The same modulated differential scanning calorimetry method used on DLRPC was employed to obtain thermotropic data on DLRPA. Instead of using water to hydrate the samples however, the following 5 buffers were utilized: a) 0.1 M KCl/HCl at pH 1.5, b) 0.1 M KCl/HCl at pH 4.14, c) 0.1 M Tris-HCl at pH 7.4, d) 0.01 M sodium borate at pH 8.44, and e) 0.01 M sodium borate at pH 9.5.
The effect of pH on the phase-transition temperature of DLRPA supramolecular structures was probed using modulated differential scanning calorimetry. Experiments were performed in the following 5 solutions: a) 0.1 M KCl/HCl at pH 1.5, b) 0.1 M KCl/HCl at pH 4.14, c) 0.1 M Tris-HCl at pH 7.4, d) 0.01 M sodium borate at pH 8.44, and e) 0.01 M sodium borate at pH 9.5.

[8] = Cholesterol interactions: MDSC of lipid/cholesterol mixtures; assay type: physicochemical
Description: The enthalpy was zero at 50 mol % cholesterol for DMRPC. For the glycerol-based phospholipid, cholesterol packed in the bilayer membrane with its hydroxyl group at the same level as the acyl groups. In this structural arrangement, cholesterol primarily interacted with the tails and not the head group or backbone.
For DMRPC, a slight decrease in phase-transition temperature was observed. The phase-transition temperature decreased from ˜30° C. at 0 mol % cholesterol to ˜27° C. at 35 mol % cholesterol. […] The carbohydrate backbone of DMRPC likely altered the effective hydrophobic length of the bilayer area (this DMRPC is similar to longer tail systems). There was a slight destabilization of the bilayer membrane with the incorporation of cholesterol as indicated by the decrease in phase-transition temperature. […] X-ray data on 20 mol % cholesterol/DMRPC confirmed the Lc state.

CCCCCCCCCCCCCCCCCCCC(=O)OC[C@H](COP(=O)([O-])OCC[N+](C)(C)C)OC(=O)CCCCCCCCCCCCCCCCCCC [DAPC, reference compound]
enthalpy of transition [1]: 12.6 ± 0.7 kcal/mol
phase-transition temperature (Tm) of the bilayer [1]: 66 °C
enthalpy of transition (literature) [2]: 11.93 kcal/mol

CCCCCCCCCCCC(=O)OC[C@H](COP(=O)(O)O)OC(=O)CCCCCCCCCCC [DLPA, dilauroyl phosphatidic acid]
pH at which the first proton of the phosphate is lost [3]: 3-4
pH at which the second proton of the phosphate is lost [3]: ~7

CCCCCCCCCCCC(=O)OC[C@H](COP(=O)([O-])OCC[N+](C)(C)C)OC(=O)CCCCCCCCCCC [DLPC, 1,2-dilauroyl-sn-glycero-3-phosphocholine, reference compound]
enthalpy of transition [1]: 1.5 kcal/mol
phase-transition temperature (Tm) of the bilayer [1]: −1.1±0.8 °C

CCCCCCCCCCCC(=O)O[C@H]1[C@H](OC)O[C@H](COP(=O)([O-])OCC[N+](C)(C)C)[C@H]1OC(=O)CCCCCCCCCCC [DLRPC, Methyl-2,3-di-O-lauroyl-b-D-ribo-5-phosphocholine]
increase of Tm over the glycerol analog [1]: 16 °C
enthalpy of transition [1]: 3.3 ± 0.3 kcal/mol and 3.3 kcal/mol
phase-transition temperature (Tm) of the bilayer [1]: 15.75±0.05 °C and 15.75 °C

CCCCCCCCCCCCCC(=O)OC[C@H](COP(=O)([O-])OCC[N+](C)(C)C)OC(=O)CCCCCCCCCCCCC [DMPC, reference compound]
increase in phase-transition temperature [4]: ≤ 17 °C
enthalpy of transition [1]: 5.6 ± 1.1 kcal/mol
phase-transition temperature (Tm) of the bilayer [1]: 23.5 °C
enthalpy of transition (literature) [2]: 5.9 ± 0.6 kcal/mol
release of carboxyfluorescein in the first 20 minutes ([5]; vesicles in 20 mM PBS pH 7.4): release dye over the first 20 minutes
initial average rate of hydrolysis by PLA2 [6]: 6.19 E-08 moles NaOH/minute and 6.19 E-08 (std. dev. 6.72E-10) moles NaOH/minute

bis-(2,3-lauroyl)-1-methoxy-5-ribo-phosphatidic acid [DLRPA]
pH at which the first proton of the phosphate is lost ([7]; from Tm versus pH profile): 3-4
pH at which the second proton of the phosphate is lost ([7]; from Tm versus pH profile): ~8.5
Tm ([7]; pH 1.5, 0.1 M KCl/HCl): ~45 °C
Tm ([7]; pH 4.14, 0.1 M KCl/HCl): 34 °C
Tm ([7]; pH 7.4, 0.1 M Tris-HCl): 31 °C
Tm ([7]; pH 8.4, 0.01 M sodium borate): 29 °C
Tm ([7]; pH 9.5, 0.01 M sodium borate): ~18 °C

methyl-2,3-di-O-arachadonyl-b-D-ribo-5-phosphocholine [DARPC]
enthalpy of transition [1]: 5.1 ± 1.5 kcal/mol and 5.1 kcal/mol
phase-transition temperature (Tm) of the bilayer [1]: 63.5±0.6 °C and 63.5 °C

methyl-2,3-di-O-myristoyl-b-D-ribo-5-phosphocholine [DMRPC]
increase of Tm over the glycerol analog [1]: approximately 6 °C
enthalpy of transition [1]: 6.1 ± 1.0 kcal/mol and 6.1 kcal/mol
phase-transition temperature (Tm) of the bilayer [1]: 29.6±0.3 °C and 29 °C and 29.6 °C
vesicle survival of SEPHADEX G-50 column separation ([5]; vesicles of 100% DMRPC (0% cholesterol)): too fragile to survive
hydrolysis rate of DMPC with DMRPC added ([6]; DMPC (5 mM) as substrate, DMRPC added to the reaction mixture): 6.32E-08 (std. dev. 1.36E-08) moles NaOH/minute
inhibition of PLA2 activity ([6]; DMPC (5 mM) as substrate, as much as 4 mM DMRPC added): did not yield a significant hydrolysis rate decrease
initial average rate of hydrolysis by PLA2 [6]: not hydrolyzed
phase-transition temperature ([8]; 0 mol % cholesterol): ~30 °C
phase-transition temperature ([8]; 35 mol % cholesterol): ~27 °C
enthalpy of transition ([8]; 50 mol % cholesterol): zero
